Assay results reported in ChEMBL document CHEMBL4840323, “Discovery of an Orally Bioavailable Small-Molecule Inhibitor for the β-Catenin/B-Cell Lymphoma 9 Protein-Protein Interaction” (J Med Chem, 2021).
Activity calls are given as the source filed them. No cut-off for these calls is given here.

How the values were obtained:
MDA-MB-468 [1] = test: Induction of apoptosis in human MDA-MB-468 cells assessed as late apoptotic cells at 40 uM measured after 72 hrs by annexinV-FITC/propidium iodide staining based flow cytometry (reference value: 13.9 %); type: functional
[2] = Solubility of the compound in 0.9% NaCl at 2 mg/ml; type: physicochemical
MDA-MB-468 [3] = test: Inhibition of Wnt/beta-catenin transactivation signalling in Wnt3a stimulated human MDA-MB-468 cells assessed as relative activity at 12.5 uM measured after 24 hrs by TOPFlash reporter gene assay relative to control; type: cell-based; parameters: scale not given: the % may be the effect or the level left
MCF-10A [4] = test: Induction of apoptosis in human MCF-10A cells assessed as early apoptotic cells at 40 uM measured after 72 hrs by annexinV-FITC/propidium iodide staining based flow cytometry (reference value: 28.9 %); type: cell-based
MCF-10A [5] = test: Induction of apoptosis in human MCF-10A cells assessed as late apoptotic cells at 40 uM measured after 72 hrs by annexinV-FITC/propidium iodide staining based flow cytometry (reference value: 13.9 %); type: cell-based
[6] = Intrinsic clearance in human liver microsomes at 1 uM measured up to 60 mins in presence of NADPH by LC-MS/SM analysis; type: ADME, Microsome
MDA-MB-468 [7] = test: Induction of apoptosis in human MDA-MB-468 cells assessed as early apoptotic cells at 40 uM measured after 72 hrs by annexinV-FITC/propidium iodide staining based flow cytometry (reference value: 28.9 %); type: functional
MCF-10A [8] = test: cells; conditions: Homo sapiens, 72 h
Description: Cytotoxicity against human MCF-10A cells assessed as cell growth inhibition measured after 72 hrs by MTS assay

MDA-MB-468 [9] = test: Antiproliferative activity against human MDA-MB-468 cells harboring beta-catenin pcDNA3.1 vector at 20 uM measured after 72 hrs by MTS assay; type: functional, cell-based
MDA-MB-231 [10] = test: Antiinvasive activity against human MDA-MB-231 cells cultured as 3D-spheroids measured after 6 days by imaging analysis; type: functional, cell-based; conditions: dose 5-40 µM, time 6.0 day
[11] = AUC in C57BL/6 mouse at 20 mg/kg, po via gavage measured up to 24 hrs by LC-MS/MS analysis; type: ADME, organism-based; parameters: route oral, dose 20 mg/kg, time <=24; conditions: in vivo
MDA-MB-231 [12] = test: Antiproliferative activity against human MDA-MB-231 cells harboring empty pcDNA3.1 vector at 20 uM measured after 72 hrs by MTS assay; type: functional, cell-based
Mus musculus [13] = organism: Mus musculus; conditions: dose 90.0 mg/kg, time 5.0 day
SW480 [14] = test: Inhibition of Wnt/beta-catenin transactivation signalling in human SW480 cells assessed as relative activity at 1.56 uM measured after 24 hrs by TOPFlash reporter gene assay relative to control; type: cell-based; parameters: scale not given: the % may be the effect or the level left
[15] = Cmax in C57BL/6 mouse at 20 mg/kg, po via gavage measured up to 24 hrs by LC-MS/MS analysis; type: ADME, organism-based; parameters: route oral, dose 20 mg/kg, time <=24; conditions: in vivo
MDA-MB-468 [16] = test: Induction of apoptosis in human MDA-MB-468 cells assessed as late apoptotic cells at 20 uM measured after 72 hrs by annexinV-FITC/propidium iodide staining based flow cytometry (reference value: 13.9 %); type: functional
[17] = Half life in C57BL/6 mouse at 1 mg/kg, iv measured after 5 mins by LC-MS/MS analysis; type: ADME, organism-based; conditions: in vivo
MDA-MB-231 [18] = test: Induction of apoptosis in human MDA-MB-231 cells assessed as early apoptotic cells at 10 uM measured after 72 hrs by annexinV-FITC/propidium iodide staining based flow cytometry (reference value: 5.3 %); type: functional
MCF-10A [19] = test: Induction of apoptosis in human MCF-10A cells assessed as late apoptotic cells at 10 uM measured after 72 hrs by annexinV-FITC/propidium iodide staining based flow cytometry (reference value: 13.9 %); type: cell-based
MDA-MB-231 [20] = test: Antiinvasive activity against human MDA-MB-231 cells cultured as 3D-spheroids at 10 uM measured after 6 days by imaging analysis relative to control; type: functional; conditions: time 6 day
[21] = Half life in human liver microsomes at 1 uM measured up to 60 mins in presence of NADPH by LC-MS/SM analysis; type: ADME, Microsome; conditions: 1 h
Mus musculus [22] = organism: Mus musculus; conditions: dose 90.0 mg/kg, time 5.0 day; remark: listed apart in the source
MDA-MB-231 [23] = test: Antiinvasive activity against human MDA-MB-231 cells cultured as 3D-spheroids at 5 uM measured after 6 days by imaging analysis relative to control; type: functional; conditions: time 6 day
MDA-MB-231 [24] = test: Induction of apoptosis in human MDA-MB-231 cells assessed as late apoptotic cells at 40 uM measured after 72 hrs by annexinV-FITC/propidium iodide staining based flow cytometry (reference value: 8.8 %); type: functional
MCF-10A [25] = test: Induction of apoptosis in human MCF-10A cells assessed as late apoptotic cells at 20 uM measured after 72 hrs by annexinV-FITC/propidium iodide staining based flow cytometry (reference value: 13.9 %); type: cell-based
HCT-116 = test: cells; conditions: Homo sapiens, HCT-116, 72 h
Description: Antiproliferative activity against human HCT-116 cells assessed as cell growth inhibition measured after 72 hrs by MTS assay

[26] = Half life in mouse liver microsomes at 1 uM measured up to 60 mins in presence of NADPH by LC-MS/SM analysis; type: ADME, Microsome; conditions: 1 h
[27] = Cmax in C57BL/6 mouse at 1 mg/kg, iv measured after 5 mins by LC-MS/MS analysis; type: ADME, organism-based; parameters: route intravenous, dose 1 mg/kg, time 5 min; conditions: in vivo
[28] = Clearance in C57BL/6 mouse at 20 mg/kg, po via gavage measured up to 24 hrs by LC-MS/MS analysis; type: ADME, organism-based; conditions: in vivo
SW480 [29] = test: Inhibition of Wnt/beta-catenin transactivation signalling in human SW480 cells assessed as relative activity at 6.25 uM measured after 24 hrs by TOPFlash reporter gene assay relative to control; type: cell-based; parameters: scale not given: the % may be the effect or the level left
MDA-MB-231 [30] = test: Antiinvasive activity against human MDA-MB-231 cells cultured as 3D-spheroids at 40 uM measured after 6 days by imaging analysis relative to control; type: functional; conditions: time 6 day
MDA-MB-468 [31] = test: Inhibition of Wnt/beta-catenin transactivation signalling in Wnt3a stimulated human MDA-MB-468 cells assessed as relative activity at 25 uM measured after 24 hrs by TOPFlash reporter gene assay relative to control; type: cell-based; parameters: scale not given: the % may be the effect or the level left
MDA-MB-231 [32] = test: Induction of apoptosis in human MDA-MB-231 cells assessed as early apoptotic cells at 40 uM measured after 72 hrs by annexinV-FITC/propidium iodide staining based flow cytometry (reference value: 5.3 %); type: functional
[33] = Intrinsic clearance in mouse liver microsomes at 1 uM measured up to 60 mins in presence of NADPH by LC-MS/SM analysis; type: ADME, Microsome; conditions: 1 h
SW480 [34] = test: Downregulation of HPRT mRNA expression in human SW480 cells at 10 to 40 uM measured after 24 hrs by qRT-PCR analysis; type: functional, cell-based; conditions: dose 10-40 µM
[35] = Oral bioavailability in C57BL/6 mouse at 20 mg/kg measured up to 24 hrs by LC-MS/MS analysis; type: ADME, organism-based; conditions: in vivo
[36] = Aqueous solubility of the compound; type: physicochemical; conditions: buffer
MDA-MB-468 [37] = test: Inhibition of Wnt/beta-catenin transactivation signalling in Wnt3a stimulated human MDA-MB-468 cells assessed as relative activity at 6.25 uM measured after 24 hrs by TOPFlash reporter gene assay relative to control; type: cell-based; parameters: scale not given: the % may be the effect or the level left
MDA-MB-231 [38] = test: Induction of apoptosis in human MDA-MB-231 cells assessed as late apoptotic cells at 20 uM measured after 72 hrs by annexinV-FITC/propidium iodide staining based flow cytometry (reference value: 8.8 %); type: functional

solubility [2]: Soluble | CLint at 1 h, 1 µM [6]: 18 µL/min/mg | AUC [11]: 11.71 µM·h | Cmax [15]: 3.21 µM | t1/2 [17]: 3.51 h | t1/2 [21]: 38.4 min | IC50 (HCT-116): 76 µM | t1/2 [26]: 9.6 min | Cmax [27]: 790 nM | CL/F [28]: 51.1 mL/min/kg | CLint [33]: 72 µL/min/mg | F [35]: 83% | solubility [36]: > 3 mM
Structure (SMILES): CC(C)(Oc1cccc(N2CCC[C@@H](C(=O)N(Cc3ccc(-c4cn[nH]c4)cc3)C3CC3)C2)c1)C(=O)N1CCNCC1.Cl
Activity (MDA-MB-468 [1]): 33.4% | Activity (MDA-MB-468 [3]): 96% | Activity (MCF-10A [4]): 3.9% | Activity (MCF-10A [5]): 15.3% | Activity (MDA-MB-468 [7]): 53.5% | IC50 (MCF-10A [8]): 92 µM | Activity (MDA-MB-468 [9]): inactive | Activity (MDA-MB-231 [10]): Dose-Dependent Effect | Activity (MDA-MB-231 [12]): Active | inhibition (Mus musculus [13]): Active | Activity (SW480 [14]): 95% | Activity (MDA-MB-468 [16]): 24.6% | Activity (MDA-MB-231 [18]): 5.4% | Activity (MCF-10A [19]): 12.3% | Activity (MDA-MB-231 [20]): 47.5% | inhibition (Mus musculus [22]): Active | Activity (MDA-MB-231 [23]): 76.3% | Activity (MDA-MB-231 [24]): 18.9% | Activity (MCF-10A [25]): 17.3% | Activity (SW480 [29]): 97% | Activity (MDA-MB-231 [30]): 10.9% | Activity (MDA-MB-468 [31]): 89% | Activity (MDA-MB-231 [32]): 53.1% | Activity (SW480 [34]): inactive | Activity (MDA-MB-468 [37]): 102% | Activity (MDA-MB-231 [38]): 23%
